Experiments:
[1] = test system: histone H1 (glycation by ADP-ribose); experiment: AGE-fluorescence screening of glycation inhibitors, histone H1 + ADP-ribose, 96 well microtiter plates; assay type: biochemical, calf; details: for inhibition of AGE-fluorescence, in words: 1 to 10 mM, 5 days; for AGE-fluorescence (day 5): 5 days incubation; for % inhibition: AGE-fluorescence day 5; for AGE-fluorescence (day 0): value (spread); for suppression of AGE-fluorescence, primary screen outcome: test compound 5 mM or limit of solubility, pH 7.4, 37° C.
Method: A 96-well, microtiter plate was used to carry out 48 reactions in duplicate. […] A second pair of wells contains the reactants and the known glycation inhibitor aminoguanidine, and functions as a positive control. Histone H1 is commercially available, and can be prepared following the procedures set out in Johns, et al., Biochem J. 92:55-59(1964), which is incorporated by reference herein.
The reaction system is 50 mM potassium phosphate buffer, at pH 7.4 to which 1.5 mg/ml histone H1 and 1.0 mM ADP-ribose were added. Reaction volume was 300 ul. AGE-fluorescence was measured over time, with incubation at 37° C., at 355 nm (ex) and 405 nm (em). Upon comparison to the control, a test compound was deemed potentially positive if AGE-fluorescence was suppressed.
The histone H1 (1.5 mg/ml) was combined with 1 mM ADP-ribose, in […] KH2PO4 buffer (pH 7.4, 37° C., 0.015% NaN3 added, to inhibit microbial growth). This reaction mixture was added, to 96 well microtiter plates. Test compounds were added to the reaction mixture, at concentrations ranging from 1 to 10 mM, in reaction volumes of 300 ul. Texts were run in duplicate.
Accumulated protein damage was determined by measuring AGE-fluorescence, at wavelengths (λex=370 nm; λ em=440 nm. The fluorescence is suppressed in the presence of compounds with inhibitory activity. Assays were read on a conventional microtiter plate, with a filter setting that approached the above conditions (λ ex: 355 nm, λ […]: 405 nm), which is in the range of the broad excitation/emission maxima of AGE compounds.
The fluorescence was measured at the beginning, and after 5 days of incubation.
The known glycation inhibitor aminoguanidine was used as a control.

[2] = test system: histone H1 (carbonylation); experiment: histone H1 carbonylation by reducing sugars, and interference by compounds; assay type: biochemical; details: for carbonylation of histone H1, in words / amount of carbonylation: 1 mM sugar, pH 7.4, 7 days
Method: Both protein cross-linking and protein carbonylation are well established indicia of protein glycation. See Schacter, et al., Free Radic Biol Med. 17:429-437 (1994), incorporated by reference. In brief, following the assays described infra, formation of protein cross-linking was measured on 12% SDS-PAGE, followed by Coomassie and silver staining. Cross-linking was detectable with a high degree of sensitivity, when the reaction between ADP-ribose and histone H1 was carried out at pH 9.0. […] In FIG. 8, the abbreviations “M,” “D”, and “O” represent “monomer,” “dimer” and “oligomer,” respectively. Silver staining is the preferred way of determining the cross linking. Protein carbonlyation was determined via Western blotting. Specifically, AGE-BSA, which had been prepared by incubating BSA with 1.66M glucose, at pH 7.4 for 90 days at 37° C., was recognized after being derivatized with 2.4 dinitrophenlyhydrazine (“DNP”), when tested with antibodies specific for protein bound, DNP epitopes.
A series of experiments were carried out to compare different reducing sugars as glycation agents. In addition to ADP-ribose, ADP-glucose, D-ribose and D-glucose were tested. Briefly, histone H1 was combined with 1 mM of each sugar, and the mixture was incubated at pH 7.4. After 7 days of incubation, reaction aliquots were analyzed on 12% SDS-PACE gels, with silver staining. Results are presented in FIGS. 19A and B. In each of these, lane 1 is a control, with no sugar added, while lanes 2-5 show results using D-glucose, D-ribose, ADP-glucose, and ADP-ribose, respectively. […] The amount of carbonylation caused by ADP-ribose (0.82 mole/mole histone H1), and D-ribose (0.06 mole/mole histone H1) correlated with immunostaining.
In order to determine if the carbonylation of histone H1 by ADP-ribose involved an oxidative pathway, several compounds, known to interfere with glycoxidation of proteins by D-glucose were tested to determine if they interfered with this action by ADP-ribose. The compounds tested included 5 mM DTPA under argon, 5 mM aminoguanidine, 5 mM N^α acetyl L-cysteine, 5 mM mannitol, and 100 units/ml catalase.

[3] = test system: He-Cat (human epidermal keratinocytes); experiment: protection against α-dicarbonyl toxicity in keratinocytes, cell count; assay type: cell-based; details: 72 hours
Method: (§1) Continuously cultured cell lines “He-Cat” (human epidermal keratinocytes), and “CF-3” (human dermal fibroblasts), were cultured under standard conditions, divided biweekly into DMEM containing 10% fetal bovine serum, and were kept in a humidified atmosphere containing 5% CO2 at 37° C. In order to divide the cells, 5% trypsin was used on the keratinocytes, and 1% trypsin was used on the fibroblasts.
(§2) Keratinocytes were seeded at 2×10^4 cells/well, and fibroblasts at 4×10^4 cells/well, using 6 well dishes. The cells were allowed to attach to the plate overnight. Either D-penicillamine or aminoguanidine (1 mM each) was added to the plates 15 minutes prior to addition of glyoxal or methylglyoxal. The α-dicarbonyl was left for 72 hours. Varying concentrations of the α-dicarbonyl were used. Cells were counted with a Coulter counter after 72 hours of stress. Cultures were also run where the glyoxal or methylglyoxal was used without the scavenger. L-alanine was used as a negative control as it was not expected to have protective effect.

[4] = test system: CF-3 (human dermal fibroblasts); experiment: protection against α-dicarbonyl toxicity in fibroblasts, cell count; assay type: cell-based; details: 72 hours
Method: as §1, §2

[5] = compound 1 mM added 15 minutes prior to methylglyoxal

Compound | AGE-fluorescence (day 5) ([1]; compound 1 mM) | % inhibition ([1]; compound 1 mM) [%] | AGE-fluorescence (day 0) ([1]; compound 1 mM) | AGE-fluorescence (day 5) ([1]; compound 5 mM) | % inhibition ([1]; compound 5 mM) [%] | AGE-fluorescence (day 0) ([1]; compound 5 mM) | AGE-fluorescence (day 5) ([1]; compound 10 mM) | % inhibition ([1]; compound 10 mM) [%] | AGE-fluorescence (day 0) ([1]; compound 10 mM) | also measured
NC(CCS)C(=O)O (racemic) [D,L-Homocysteine] | 16 (1.1) | 26 | 1.3 (0.0) | 22 (0.1) | 0 | 1.2 (0.2) | 27 (1.7) | 0 | 1.1 (0.1) | inhibition of AGE-fluorescence, in words [1]: increased AGE-fluorescence
O=C1CC(=O)NC(=S)N1 [2-Thiobarbituric acid] | 12 (0.4) | 45 | 1.1 (0.1) | 5.5 (0.4) | 78 | 1.2 (0.1) | 2.3 (0.0) | 95 | 1.3 (0.1) | 
Nc1ncnc2c1ncn2[C@@H]1O[C@H](COP(=O)(O)OP(=O)(O)O[C@H]2O[C@H](CO)[C@@H](O)[C@H](O)[C@H]2O)[C@@H](O)[C@H]1O [ADP-glucose] |  |  |  |  |  |  |  |  |  | carbonylation of histone H1, in words [2]: Neither D-glucose nor ADP-glucose caused significant carbonylation
Nc1ncnc2c1ncn2[C@@H]1O[C@H](COP(=O)(O)OP(=O)(O)OC[C@H]2OC(O)[C@H](O)[C@@H]2O)[C@@H](O)[C@H]1O (stereo partly shown) [ADP-ribose] |  |  |  |  |  |  |  |  |  | amount of carbonylation [2]: 0.82 mole/mole histone H1; carbonylation of histone H1, in words [2]: extensive carbonylation
NCCS [Cysteamine] | 10 (0.6) | 55 | 1.0 (0.1) | 9.0 (0.7) | 60 | 1.1 (0.1) | 6.0 (0.3) | 76 | 1.2 (0.2) | inhibition of AGE-fluorescence, in words [1]: somewhat better inhibition
O=C[C@H](O)[C@@H](O)[C@H](O)[C@H](O)CO [D-glucose] |  |  |  |  |  |  |  |  |  | carbonylation of histone H1, in words [2]: Neither D-glucose nor ADP-glucose caused significant carbonylation
O=C[C@H](O)[C@H](O)[C@H](O)CO [D-ribose] |  |  |  |  |  |  |  |  |  | amount of carbonylation [2]: 0.06 mole/mole histone H1; carbonylation of histone H1, in words [2]: a lesser amount
O=C(O)CN(CCN(CC(=O)O)CC(=O)O)CCN(CC(=O)O)CC(=O)O [DTPA] |  |  |  |  |  |  |  |  |  | interference with carbonylation of histone H1 by ADP-ribose ([2]; 5 mM under argon): none of these interfered with the carbonylation
N[C@@H](CCC(=O)N[C@@H](CS)C(=O)NCC(=O)O)C(=O)O [GSH, glutathione] | 19 (0.3) | 10 | 1.3 (0.0) | 17 (0.3) | 20 | 1.1 (0.3) | 14 (0.5) | 35 | 1.1 (0.0) | 
N[C@@H](CS)C(=O)O [L-Cys, L-cysteine] | 14 (0.3) | 36 | 1.2 (0.1) | 11 (0.2) | 50 | 1.1 (0.1) | 9.0 (0.2) | 61 | 1.2 (0.1) | suppression of AGE-fluorescence, primary screen outcome [1]: potential inhibitor
N[C@@H](CS)C(=O)NCC(=O)O [L-Cys-Gly, NH2-L-cys-gly-COOH] | 17 | 20 | 1.3 (0.3) | 26 (0.4) | 0 | 1.2 (0.2) | 40 (0.0) | 0 | 1.2 (0.1) | inhibition of AGE-fluorescence, in words [1]: increased AGE-fluorescence
COC(=O)[C@@H](N)CS [L-Cys-OMe, L-cysteine methylester] | 15 (0.1) | 31 | 1.2 (0.1) | 12 (0.8) | 46 | 1.3 (0.1) | 9.0 (0.2) | 61 | 1.2 (0.1) | suppression of AGE-fluorescence, primary screen outcome [1]: potential inhibitor
C[N+](C)(C)[C@@H](Cc1c[nH]c(=S)[nH]1)C(=O)[O-] [L-Ergothioneine] | 13 (0.0) | 40 | 1.0 (0.1) | 9.3 (0.2) | 59 | 1.2 (0.0) | 7.4 (0.1) | 69 | 1.2 (0.1) | inhibition of AGE-fluorescence, in words [1]: somewhat better inhibition
C[C@H](N)C(=O)O [L-alanine] |  |  |  |  |  |  |  |  |  | protection against methylglyoxal induced growth inhibition [3, 5]: no protective effect; protection against methylglyoxal induced growth inhibition [4, 5]: no protective effect
CC(=O)N[C@@H](CS)C(=O)O [NAC, N α-acetyl-L-cysteine, reference compound] | 11 (0.6) | 51 | 1.2 (0.2) | 10 (0.4) | 55 | 1.0 (0.1) | 9.4 (0.6) | 58 | 1.1 (0.1) | % inhibition ([1]; compound 10 mM, listed as N α-acetyl-L-cysteine): 61%; interference with carbonylation of histone H1 by ADP-ribose ([2]; compound 5 mM): none of these interfered with the carbonylation
NCCC(=O)O [beta-alanine] |  |  |  |  |  |  |  |  |  | suppression of AGE-fluorescence, primary screen outcome [1]: true negatives
OC[C@@H](O)[C@@H](O)[C@H](O)[C@H](O)CO [mannitol] |  |  |  |  |  |  |  |  |  | interference with carbonylation of histone H1 by ADP-ribose ([2]; compound 5 mM): none of these interfered with the carbonylation
CC(=O)C=O [methylglyoxal] |  |  |  |  |  |  |  |  |  | concentration completely inhibitory to growth ([3]; no scavenger): 600 µM; concentration completely inhibitory to growth ([4]; no scavenger): 600 µM
catalase |  |  |  |  |  |  |  |  |  | interference with carbonylation of histone H1 by ADP-ribose ([2]; 100 units/ml): none of these interfered with the carbonylation
